The supplement of paper PMC3974653
Where “and” joins values, the source holds several entries; their conditions need not be identical. Equal values may be shown once. Where a name gives a salt, the structure may show the parent alone.

Key:
Conditions in all cases: (24 or 48 h)
[1] = tested on: MTT (mouse pheochromocytoma); assay: efficacy (maximal response) relative to doxorubicin = -100% and DMSO = 0%; higher = less inhibition of viability
[2] = tested on: MTT (mouse pheochromocytoma); assay: IC50 of cell viability (ATP content); AC50 where efficacy is positive
[3] = tested on: MTT (mouse pheochromocytoma); assay: IC50 of cell viability (ATP content)
Outline: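 The IC50 was fitted with a four-parameter logistic equation to normalised CellTiter-Glo ATP luminescence from MTT mouse pheochromocytoma cells. These cells, in white 1536-well plates, had been treated for 24 or 48 hrs with library compounds at 8 final concentrations between 0.5 nM and 46 µM, and luminescence was read after 15 minutes. Positive-control wells served as 100% and DMSO wells as 0%.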

Compound | IC50 of cell viability [2] | IC50 of cell viability [3] | efficacy [1]
Nc1ncn(C2C[C@H](O)[C@@H](CO)O2)c(=O)n1 (stereo partly specified) | 0.0668 µM | – | -51.6%
O=C(CCl)c1ccc(Cl)cc1Cl [2,2',4'-Trichloroacetophenone] | 8.63 µM and 3.76 µM | – | -84.4% and -71.5%
O=C(O)Cc1ccccc1 [a-Toluic acid] | – | > 46 µM | –
OC[C@H]1O[C@@H]2O[C@H]3[C@H](O)[C@@H](O)[C@@H](O[C@H]4[C@H](O)[C@@H](O)[C@@H](O[C@H]5[C@H](O)[C@@H](O)[C@@H](O[C@H]6[C@H](O)[C@@H](O)[C@@H](O[C@H]7[C@H](O)[C@@H](O)[C@@H](O[C@H]1[C@H](O)[C@H]2O)O[C@@H]7CO)O[C@@H]6CO)O[C@@H]5CO)O[C@@H]4CO)O[C@@H]3CO [alpha-Cyclodextrin] | – | > 46 µM | –
C[C@H]1[C@@H]2CC[C@]/3(C)\C=C/C(=O)/C(=C3[C@H]2OC1=O)C [alpha-Santonin] | – | > 46 µM | –
Cc1nnc2n1-c1ccc(Cl)cc1C(c1ccccc1)=NC2 [alprazolam] | – | > 46 µM | –
O=C1CCO1 [beta-Propiolactone] | – | > 46 µM | –
C=C[C@@H]1CN2CC[C@H]1C[C@H]2[C@H](O)c1ccnc2ccccc12 [cinchonine] | – | > 46 µM | –
[Cl][Pt][Cl] [cis-Diamineplatinum(II) dichloride] | – | > 46 µM | –
[NH2][Pt]([NH2])([Cl])[Cl] [cis-Dichlorodiamine platinum] | – | > 46 µM | –
CN(C)CCC(c1ccc(Cl)cc1)c1ccccn1 (stereo unspecified) [dexchlorpheniramine] | – | > 46 µM | –
CCN(CC)CCN1C(=O)CN=C(c2ccccc2F)c2cc(Cl)ccc21 [flurazepam] | – | > 46 µM | –
Cc1ccc(O)cc1.Cc1cccc(O)c1.Cc1ccccc1O [m-Cresol and o-cresol and p-cresol mixture] | – | > 46 µM | –
N=C(N)NCc1cccc(I)c1.N=C(N)NCc1cccc(I)c1.O=[S+]([O-])(O)O [m-Iodobenzylguanidine hemisulfate] | – | > 46 µM | –
N=C(N)NCc1cccc(I)c1 [m-Iodobenzylguanidine hemisulfate] | – | > 46 µM | –
CCCCCl [n-Butyl chloride] | – | > 46 µM | –
CN1C(=O)CN=C(c2ccccc2)c2cc([N+](=O)[O-])ccc21 [nimetazepam] | – | > 46 µM | –
O=C1CN=C(c2ccccc2)c2cc([N+](=O)[O-])ccc2N1 [nitrazepam] | – | > 46 µM | –
Nc1ccccc1C(=O)O [o-Anthranilic acid] | – | > 46 µM | –
COc1ccccc1O [o-methoxyphenol] | – | > 46 µM | –
CC12CCC3c4ccc(O)cc4CCC3C1CCC2=O (stereo unspecified) [oestrone] | – | > 46 µM | –
CN1CCN(CC1)C/2=N/C3=CC=CC=C3NC4=C2C=C(C)S4 [olanzapine] | – | > 46 µM | –
C[C@@H]1O[C@@H](O[C@H]2C[C@@H](O)[C@@]3(CO)[C@H]4[C@H](O)C[C@]5(C)[C@H](CC[C@]5(O)[C@H]4CC[C@@]3(O)C2)\C6=C\C(=O)OC6)[C@@H](O)[C@H](O)[C@H]1O [ouabain] | – | > 46 µM | –
Cl.Nc1cc(Cl)c(N=C2NCCN2)c(Cl)c1 [p-Aminoclonidine hydrochloride] | – | > 46 µM | –
Cc1cc(O)ccc1Cl [p-Chloro-m-cresol] | – | > 46 µM | –
Nc1ccc(Cl)cc1 [p-Chloroaniline] | – | > 46 µM | –
Oc1ccc(Cl)cc1 [p-Chlorophenol] | – | > 46 µM | –
Cc1ccc(O)cc1 [p-Cresol] | – | > 46 µM | –
CCC(C)(C)c1ccc(O)cc1 [p-tert-Pentylphenol] | – | > 46 µM | –
CN1[C@@H]2C[C@H](OC(=O)[C@@H](CO)c3ccccc3)C[C@@H]1[C@H]1O[C@H]12 [scopolamine] | – | > 46 µM | –

Continued, in another order:

IC50 of cell viability [2] | IC50 of cell viability [3] | Compound | efficacy [1]
2.66 µM | – | CC(=O)Nc1ccc(NC(=S)NC(=O)c2ccc(C(C)(C)C)cc2)cc1 | -56%
11.9 µM | – | F\C1=C\NC(=O)NC1=O [5-Fluorouracil] | -67.4%
21.1 µM | – | Sc1ncnc2[nH]cnc12 [6-Mercaptopurine monohydrate] | -78.1%
21.1 µM | – | NC/1=N/C(S)C/2\N=C/NC2=N1 (stereo unspecified) [6-Thioguanine (6-TG)] | -78.6%
21.1 µM | – | Cl.Nc1c2ccccc2nc2ccccc12.O [9-Aminoacridine HCl H2O] | -110%
4.22 µM | – | C=CCNC1=C2C[C@@H](C)C[C@H](OC)[C@H](O)[C@@H](C)/C=C(\C)[C@H](OC(N)=O)[C@@H](OC)C=C/C=C(\C)C(=O)NC(=CC1=O)C2=O [17-Allylamino-geldanamycin] | -80.6%
21.1 µM | – | Cl.CC(C)(C)[C@]1(O)CC[N@@]2C[C@H]3C4=C(CCC5=CC=CC(=C35)[C@@H]2C1)C=CC=C4 [(?)-Butaclamol hydrochloride] | -70.8%
– | > 46 µM | O=C(O)CCCCC1CCSS1 (stereo not drawn) [alpha-Lipoic acid] | –
– | > 46 µM | CC/1=C/CC2CC1C2(C)C (stereo not drawn) [alpha-Pinene] | –
– | > 46 µM | CCOC(=O)OC(C)OC1=C(C(=O)Nc2ccccn2)N(C)S(=O)(=O)c2ccccc21 (stereo unspecified) [ampiroxicam] | –
– | > 46 µM | CCc1oc2ccccc2c1C(=O)c1cc(Br)c(O)c(Br)c1 [benzbromarone] | –
– | > 46 µM | O=C(OCc1ccccc1)c1ccc(O)cc1 [benzyl 4-hydroxybenzoate] | –
– | > 46 µM | CC1=C(/C=C/C(C)=C/C=C/C(C)=C/C=C/C=C(C)/C=C/C=C(C)/C=C/C2=C(C)CCCC2(C)C)C(C)(C)CCC1 [beta-CAROTENE] | –
– | > 46 µM | OC[C@H]1O[C@@H]2O[C@H]3[C@H](O)[C@@H](O)[C@@H](O[C@H]4[C@H](O)[C@@H](O)[C@@H](O[C@H]5[C@H](O)[C@@H](O)[C@@H](O[C@H]6[C@H](O)[C@@H](O)[C@@H](O[C@H]7[C@H](O)[C@@H](O)[C@@H](O[C@H]8[C@H](O)[C@@H](O)[C@@H](O[C@H]1[C@H](O)[C@H]2O)O[C@@H]8CO)O[C@@H]7CO)O[C@@H]6CO)O[C@@H]5CO)O[C@@H]4CO)O[C@@H]3CO [beta-Cyclodextrin] | –
– | > 46 µM | CCC(CCC(C)C1CCC2C3C\C=C/4CC(O)CC[C@@]4(C)C3CC[C@@]12C)C(C)C (stereo partly drawn) [beta-SITOSTEROL] | –
– | > 46 µM | CCCCCCCC(=O)O [caprylic acid (octanoic acid)] | –
– | > 46 µM | CCC(=O)OCC(=O)[C@@]1(OC(=O)CC)[C@@H](C)C[C@H]2[C@@H]3CCC4=CC(=O)C=C[C@]4(C)[C@@]3(F)[C@@H](O)C[C@@]21C [dexamethasone dipropionate] | –
– | > 46 µM | OCC(O)C(O)C(O)C(O)CO (stereo unspecified) [galactitol] | –
– | > 46 µM | CC1(C)[C@@H]2CC[C@]1(C)[C@@H](OC(=O)CSC#N)C2 [isobornyl thiocyanoacetate] | –
– | > 46 µM | CCC(C)N1\N=C/N(C1=O)C2=CC=C(C=C2)N3CCN(CC3)C4=CC=C(OCC5COC(C[N]6C=NC=N6)(O5)C7=CC=C(Cl)C=C7Cl)C=C4 (stereo unspecified) [itraconazole] | –
– | > 46 µM | Nc1ccn([C@@H]2CS[C@H](CO)O2)c(=O)n1 [lamivudine] | –

IC50 of cell viability [2] | IC50 of cell viability [3] | Compound | efficacy [1]
– | > 46 µM | CC(C(=O)O)c1ccc(CC2CCCC2=O)cc1 (stereo unspecified) [loxoprofen] | –
– | > 46 µM | CC(C)OC(=O)C(\C(=O)OC(C)C)=C1\SC=CS1 [malotilate] | –
– | > 46 µM | CN1CCCC[C@@H]1CCN1c2ccccc2Sc2ccc([S+](C)[O-])cc21 (stereo partly specified) [mesoridazine] | –
– | > 46 µM | CCCCO [n-Butyl alcohol] | –
– | > 46 µM | CCCCC [n-Pentane] | –
– | > 46 µM | CC(=O)Nc1ccc(C(=O)O)cc1 [p-Acetamidobenzoic acid] | –
– | > 46 µM | Nc1ccc(C(=O)O)cc1 [p-Amino benzoic acid] | –
– | > 46 µM | Nc1ccc(O)cc1 [p-Aminophenol] | –
– | > 46 µM | NC(Cc1ccc(Cl)cc1)C(=O)O (stereo unspecified) [p-Chlorophenylalanine] | –
– | > 46 µM | CC(C)(C)c1ccc(O)c(O)c1 [p-tert-Butylcatechol] | –
– | > 46 µM | O=P(O)(O)O [phosphoric acid] | –
– | > 46 µM | CC(C)n1nc(-c2cc3cc(O)ccc3[nH]2)c2c(N)ncnc21 [pp242] | –
– | > 46 µM | OC(CCN1CCCCC1)(c1ccccc1)c1ccccc1 [pridinol] | –
– | > 46 µM | OCCOCCN1CCN(CC1)C/2=N/C3=CC=CC=C3SC4=CC=CC=C24 [quetiapine] | –
– | > 46 µM | Nc1ccc([S+](=O)([O-])Nc2ncccn2)cc1.[Ag] [sulfadiazine] | –
– | > 46 µM | Nc1ccc([S+](=O)([O-])Nc2cnc3ccccc3n2)cc1 [sulfaquinoxaline] | –
– | > 46 µM | CC(C)(C)c1cc(O)ccc1O [tert-Butylhydroquinone] | –
– | > 46 µM | CC(C)C(C)(C)C(C)(C)C(C)(C)S [tert-Dodecanethiol] | –
– | > 46 µM | Cc1ccc(/C(=C\CN2CCCC2)c2ccccn2)cc1 [trans-TRIPROLIDINE] | –
– | > 46 µM | COC[C@@H](c1ccc(C(F)(F)F)cc1)N1CCN(C2(C)CCN(C(=O)c3c(C)ncnc3C)CC2)C[C@@H]1C [vicriviroc maleate] | –
– | > 46 µM | OCC(CO)NC1C[C@](O)(CO)[C@@H](O)[C@H](O)[C@H]1O (stereo partly specified) [voglibose] | –
